Data on five compounds can be found in PubChem BioAssay AID2060347 (Molecular Pharmacology Branch, DTP, NCI, 2025).

Structures are written as SMILES. “And” between values parts separate entries of the source, which are not always exact repeats. Equal entries are not always repeated.

This assay deals with 817829-284-R-J1-PDC spheroids with HUVEC/MSC, viability. Nature of the assay: Anticancer human tumor 817829-284-R-J1-PDC patient-derived colon adenocarcinoma cell line growth inhibition [TAK]. To be noted: for viability, T/C: stronger effect = lower value. The text has this: Combinatorial screen of targeted agents with TAK-243 and ipatasertib in multi-cell type tumor spheroids
A high-throughput screen of multi-cell type tumor spheroids was designed to identify active combinations of targeted small molecules and TAK-243 or ipatasertib. Complex spheroids include a stromal component modeled by human endothelial cells (HUVEC) and fibroblasts modeled by human mesenchymal stem cells (MSCs). The concentration ranges selected for each drug and investigational agent were based upon clinically achievable concentrations if the clinical Cmax of the agent was known.
Compounds. The drugs and investigational agents: TAK-243 (785004), ipatasertib (767898), everolimus (733504), selumetinib (741078), bortezomib (756655), trametinib (758246), ixazomib (758254), vemurafenib (761431), dabrafenib (764134), sapanisertib (764658), alpelisib (765974), and copanlisib (816437), were obtained from the National Cancer Institute (NCI) Developmental Therapeutics Program Chemical Repository. The FDA-approved anticancer drug set is available from the NCI Developmental Therapeutics Program. […] The stock solutions were prepared in dimethyl sulfoxide (DMSO, Sigma-Aldrich, St. Louis, MO, cat. D2650) at 800-fold the tested concentration and stored at -70 degrees C prior to their use. All drugs and investigational agents were tested over a range starting from a high concentration at or near the clinical Cmax and decreasing in half-log increments. If the clinical Cmax for an agent had not been determined, the highest concentration tested was 10 microM.
NCI60 Cell Culture. NCI60 cell lines were obtained from the NCI Developmental Therapeutics Program Tumor Repository. For each lot of cells, the Repository performed Applied Biosystems AmpFLSTR Identifiler testing with PCR amplification to confirm consistency with the published Identifier STR profile for each cell line. Cells were kept in continuous culture for no more than 20 passages. The optimal seeding densities for each of the cell lines at each time point assessed were determined prior to performing the concentration response studies. Briefly, the NCI60 human tumor lines were grown as monolayers in RPMI 1640 medium supplemented with 10% FBS and 2 mmol/L L-glutamine.
An additional 2 lines were from the NCI60 cell line panel including melanomas, MALME-3M and SK-MEL-2. Pooled donor human umbilical vein endothelial cells (HUVEC, Lonza, cat. CC-2519) and human mesenchymal stem cells (hMSC, Lonza, cat. PT-2501) were purchased from Lonza (Walkersville, MD).
PDMR cell lines were grown in complete medium (DC medium): Dulbecco's modified Eagle's medium (DMEM)/F12 supplemented with 5% fetal bovine serum (FBS), 2 mM L-glutamine, 100 U/mL penicillin and 100 µg/ml streptomycin, 0.4 µg/ml hydrocortisone, 10 ng/ml epidermal growth factor (EGF) recombinant human protein, 24 µg/mL adenine, and 0.1 mg/mL primocin. During culture from frozen stock vials, PDMR cells were cultured in the same medium containing 10 µM Y-27632 (see Table 3). The PDCs were cultured in complete DMEM/F12 media without 10 microM Y-27632 dihydrochloride for at least two passages prior to the screen. The pooled donor HUVEC and hMSC were cultured in endothelial cell growth medium 2 (PromoCell, Heidelberg, Germany, cat. C-22011) and mesenchymal stem cell growth medium 2 (PromoCell, cat. C-28009), respectively. For all experiments, HUVEC and hMSC were used at passages </=5.
For the pre-screen, cell seeding densities were determined from a titration spanning the range from 5,000 to 313 cells per well. The mct-spheroids including 60% malignant cells, 25% HUVEC and 15% MSC dispensed as a mixture into U-bottom Ultra-Low Attachment 384-well plates (Corning, NY)
High-throughput Drug Combination Screening.
Prior to their inoculation into 384-well plates, malignant cells, HUVEC, and hMSC were removed from T flasks using TrypLE express (Thermo Fisher Scientific, cat. 12605036) and harvested by centrifugation for 5 min at 233 x g. […]

[1] abbreviates: curve of first compound, second compound 0.3 µM.
The mark [2] stands for this setting: curve of first compound, second compound 0.949 µM.
The mark [3] stands for this setting: curve of first compound, second compound 3 µM.
Setting [4] is: curve of first compound, second compound 9.49 µM.
The mark [5] stands for this setting: curve of first compound, second compound 30 µM.
Setting [6] is: second compound 0.3 µM, first compound 0.0316 µM.
[7] abbreviates: second compound 0.3 µM, first compound 0.1 µM.
Where [8] appears, read: second compound 0.949 µM, first compound 0.0316 µM.
Setting [9] is: second compound 0.949 µM, first compound 0.1 µM.
The mark [10] stands for this setting: second compound 3 µM, first compound 0.0316 µM.
[11] abbreviates: second compound 3 µM, first compound 0.1 µM.
The mark [12] stands for this setting: second compound 9.49 µM, first compound 0.0316 µM.
[13] abbreviates: second compound 9.49 µM, first compound 0.1 µM.
Where [14] appears, read: second compound 30 µM, first compound 0.0316 µM.
The mark [15] stands for this setting: second compound 30 µM, first compound 0.1 µM.

Regarding `COC1CC2CCC(C)C(O)(O2)C(=O)C(=O)N2CCCCC2C(=O)OC(C(C)CC2CCC(OCCO)C(OC)C2)CC(=O)C(C)C=C(C)C(O)C(OC)C(=O)C(C)CC(C)C=CC=CC=C1C` (stereo unspecified) + CC(C)NCC(C(=O)N1CCN(c2ncnc3c2C(C)CC3O)CC1)c1ccc(Cl)cc1, the IC50 (commonly the concentration that inhibits the measured activity by half) by setting is: under setting [1], 14.5 nM; under setting [2], 0.479 nM; under setting [3], below 0.316 nM; under setting [4], below 0.316 nM; under setting [5], below 0.316 nM. Further, the viability, T/C (commonly the ratio of treated to control) is 90.9% (second compound 0.3 µM, first compound 0.000316 µM); 76.7% (second compound 0.3 µM, first compound 0.001 µM); 61.8% (second compound 0.3 µM, first compound 0.00316 µM); 49.9% (second compound 0.3 µM, first compound 0.01 µM); 49.7% under setting [6]; 40.8% under setting [7]. The viability, T/C reads like this: (second compound 0.949 µM, first compound 0.000316 µM) 59%; (second compound 0.949 µM, first compound 0.001 µM) 33.4%; (second compound 0.949 µM, first compound 0.00316 µM) 33.7%; (second compound 0.949 µM, first compound 0.01 µM) 31.7%; under setting [8], 28.6%; under setting [9], 28.9%. In addition, the viability, T/C (second compound 3 µM, first compound 0.000316 µM) was 23.3%; the viability, T/C (second compound 3 µM, first compound 0.001 µM) was 19.9%; the viability, T/C (second compound 3 µM, first compound 0.00316 µM) was 16.4%; the viability, T/C (second compound 3 µM, first compound 0.01 µM) is 16%; the viability, T/C under setting [10] is 18.3%; the viability, T/C under setting [11] was 13.7%. For the same compound, the viability, T/C (second compound 9.49 µM, first compound 0.000316 µM) is 12.9%; the viability, T/C (second compound 9.49 µM, first compound 0.001 µM) is 12.5%; the viability, T/C (second compound 9.49 µM, first compound 0.00316 µM) was 12.6%; the viability, T/C (second compound 9.49 µM, first compound 0.01 µM) was 12.7%; the viability, T/C under setting [12] is 9.91%; the viability, T/C under setting [13] was 12.8%. For the same compound, the viability, T/C was 7.9% (second compound 30 µM, first compound 0.000316 µM); 7.4% (second compound 30 µM, first compound 0.001 µM); 6.49% (second compound 30 µM, first compound 0.00316 µM); 6.32% (second compound 30 µM, first compound 0.01 µM); 6.79% under setting [14]; 6.34% under setting [15].
`Cc1nc(NC(=O)N2CCCC2C(N)=O)sc1-c1ccnc(C(C)(C)C(F)(F)F)c1` (stereo unspecified): the viability, T/C runs as follows: (compound 0.0316 µM) 96.8% and 102%; (compound 0.1 µM) 98.7% and 96.4%; (compound 0.316 µM) 94.8% and 94.7%; (compound 1 µM) 88.1% and 93%; (compound 3.16 µM) 79.6% and 80%; (compound 10 µM) 48.1% and 49.1%. Besides, the IC50 (curve of compound) is 9420 nM and 9840 nM.
With `Cc1nc(NC(=O)N2CCCC2C(N)=O)sc1-c1ccnc(C(C)(C)C(F)(F)F)c1` (stereo unspecified) + CC(C)NCC(C(=O)N1CCN(c2ncnc3c2C(C)CC3O)CC1)c1ccc(Cl)cc1, the IC50 was 1190 nM under setting [1]; 76.2 nM under setting [2]; below 31.6 nM under setting [3]; below 31.6 nM under setting [4]; below 31.6 nM under setting [5]. In addition, the viability, T/C by setting is: under setting [6], 87.9%; under setting [7], 80.6%; (second compound 0.3 µM, first compound 0.316 µM) 74.8%; (second compound 0.3 µM, first compound 1 µM) 51.9%; (second compound 0.3 µM, first compound 3.16 µM) 37%; (second compound 0.3 µM, first compound 10 µM) 33.1%. Besides, the viability, T/C reads like this: under setting [8], 61.8%; under setting [9], 48.5%; (second compound 0.949 µM, first compound 0.316 µM) 28.4%; (second compound 0.949 µM, first compound 1 µM) 26.7%; (second compound 0.949 µM, first compound 3.16 µM) 14.4%; (second compound 0.949 µM, first compound 10 µM) 8.03%. The viability, T/C was 18.1% under setting [10]; 17% under setting [11]; 13.2% (second compound 3 µM, first compound 0.316 µM); 6.56% (second compound 3 µM, first compound 1 µM); 6.29% (second compound 3 µM, first compound 3.16 µM); 5.54% (second compound 3 µM, first compound 10 µM). For the same compound, the viability, T/C is, setting by setting: under setting [12], 9.9%; under setting [13], 9.69%; (second compound 9.49 µM, first compound 0.316 µM) 8.57%; (second compound 9.49 µM, first compound 1 µM) 5.76%; (second compound 9.49 µM, first compound 3.16 µM) 3.41%; (second compound 9.49 µM, first compound 10 µM) 2.85%. Moreover, the viability, T/C is, setting by setting: under setting [14], 6.53%; under setting [15], 6.06%; (second compound 30 µM, first compound 0.316 µM) 4.67%; (second compound 30 µM, first compound 1 µM) 3.84%; (second compound 30 µM, first compound 3.16 µM) 2.64%; (second compound 30 µM, first compound 10 µM) 1.58%.
Turning to `Cn1cnc2c(F)c(Nc3ccc(Br)cc3Cl)c(C(=O)NOCCO)cc21`, the viability, T/C (compound 0.00949 µM) was 89.3% and 94.4%; the viability, T/C (compound 0.03 µM) was 86.4% and 83.3%; the viability, T/C (compound 0.0949 µM) was 79% and 79.5%; the viability, T/C (compound 0.3 µM) is 72% and 66.6%; the viability, T/C (compound 0.949 µM) was 55.7% and 53.5%; the viability, T/C (compound 3 µM) was 25.6% and 20.5%. Besides, the IC50 (curve of compound) was 1150 nM and 953 nM.
In the case of `CC(=O)Nc1cccc(-n2c(=O)n(C3CC3)c(=O)c3c(Nc4ccc(I)cc4F)n(C)c(=O)c(C)c32)c1`, the viability, T/C is 104% and 103% (compound 94.9 pM); 93% and 94.2% (compound 0.0003 µM); 85.1% and 82.9% (compound 0.000949 µM); 65.9% and 53.9% (compound 0.003 µM); 25.9% and 33.9% (compound 0.00949 µM); 10.8% and 11% (compound 0.03 µM). In addition, the IC50 (curve of compound) was 4.58 nM and 4.15 nM.
